Experimental data: PMC7333355, “Functional and Regulatory Characterization of Three AMTs in Maize Roots” (Frontiers in Plant Science, 2020)

Experiments:
AtAMT1;3 = target: T1, AtAMT1;3 (Arabidopsis thaliana, UniProt Q9SQH9); settings: 1 mM ammonium chloride
T1 construct: gene AMT1-3

ZmAMT1.3 = target: T2, ZmAMT1.3 (Zea mays, UniProt B4F978); assay: two-electrode voltage clamp, Xenopus oocytes, inhibition of ammonium-induced current; format: cell-based; settings: read-out: % inhibition at 10 mM
T2 construct: full-length cDNA from maize root RNA in pCI vector, expressed in Xenopus laevis oocytes; no tag stated
T2 sequence (B4F978 1-488): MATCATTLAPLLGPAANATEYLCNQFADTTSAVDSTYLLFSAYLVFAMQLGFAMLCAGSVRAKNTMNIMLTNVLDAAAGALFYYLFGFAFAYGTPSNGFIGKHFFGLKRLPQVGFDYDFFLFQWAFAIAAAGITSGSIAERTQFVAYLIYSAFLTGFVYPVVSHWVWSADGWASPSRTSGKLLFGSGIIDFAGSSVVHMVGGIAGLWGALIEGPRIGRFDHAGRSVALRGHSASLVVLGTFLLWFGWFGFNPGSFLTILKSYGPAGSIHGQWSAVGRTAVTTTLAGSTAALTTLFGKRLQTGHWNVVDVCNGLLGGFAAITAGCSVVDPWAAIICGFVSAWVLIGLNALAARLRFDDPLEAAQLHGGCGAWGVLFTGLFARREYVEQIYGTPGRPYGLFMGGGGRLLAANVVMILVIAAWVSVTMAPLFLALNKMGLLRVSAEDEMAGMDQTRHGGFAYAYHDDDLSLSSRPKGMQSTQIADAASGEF

ZmAMT1.1a = target: T3, ZmAMT1.1a (Zea mays, UniProt B4FRK2); assay: as above; format: cell-based; settings: read-out: % inhibition at 10 mM
T3 construct: full-length cDNA from maize root RNA in pCI vector, expressed in Xenopus laevis oocytes; no tag stated
T3 sequence (B4FRK2 1-498): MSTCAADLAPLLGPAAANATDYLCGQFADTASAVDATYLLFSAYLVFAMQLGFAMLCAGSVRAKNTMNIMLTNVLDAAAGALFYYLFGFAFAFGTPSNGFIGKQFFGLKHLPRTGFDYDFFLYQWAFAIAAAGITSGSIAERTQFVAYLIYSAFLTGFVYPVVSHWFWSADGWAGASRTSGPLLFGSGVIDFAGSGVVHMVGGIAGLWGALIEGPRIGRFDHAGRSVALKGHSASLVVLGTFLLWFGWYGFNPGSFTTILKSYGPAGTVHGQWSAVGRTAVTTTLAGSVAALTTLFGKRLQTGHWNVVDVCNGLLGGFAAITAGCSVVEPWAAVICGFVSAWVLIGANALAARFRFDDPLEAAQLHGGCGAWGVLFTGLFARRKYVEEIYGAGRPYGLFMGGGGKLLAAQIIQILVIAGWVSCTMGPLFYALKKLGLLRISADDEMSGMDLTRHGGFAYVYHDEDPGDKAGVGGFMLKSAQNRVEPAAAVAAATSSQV

ZmAMT1.1b = target: T4, ZmAMT1.1b (Zea mays, UniProt B4FV06); assay: as above; format: cell-based; settings: read-out: % inhibition at 10 mM
T4 construct: full-length cDNA from maize root RNA in pCI vector, expressed in Xenopus laevis oocytes; no tag stated
T4 sequence (B4FV06 1-489): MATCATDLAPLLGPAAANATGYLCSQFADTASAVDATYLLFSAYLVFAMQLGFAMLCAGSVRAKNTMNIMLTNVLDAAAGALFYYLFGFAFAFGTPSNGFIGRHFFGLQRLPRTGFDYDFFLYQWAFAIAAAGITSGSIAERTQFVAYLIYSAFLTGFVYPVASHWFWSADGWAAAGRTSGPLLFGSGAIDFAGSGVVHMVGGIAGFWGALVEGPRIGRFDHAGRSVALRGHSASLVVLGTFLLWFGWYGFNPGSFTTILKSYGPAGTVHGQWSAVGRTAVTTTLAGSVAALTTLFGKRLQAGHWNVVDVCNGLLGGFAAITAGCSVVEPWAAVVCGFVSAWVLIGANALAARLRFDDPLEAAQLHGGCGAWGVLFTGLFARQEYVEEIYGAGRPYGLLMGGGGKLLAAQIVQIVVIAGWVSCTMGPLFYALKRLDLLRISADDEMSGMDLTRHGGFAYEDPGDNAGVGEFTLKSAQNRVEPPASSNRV

[1] = substrate: N; assay: cells, lysate or membranes; settings: added as chloride
[2] = substrate: CN; assay: two-electrode voltage clamp, Xenopus oocytes, Michaelis-Menten fit of induced currents; format: cell-based, Zea mays; settings: pH 7.4, -140 mV, added as chloride

T1 sequence (Q9SQH9 whole entry): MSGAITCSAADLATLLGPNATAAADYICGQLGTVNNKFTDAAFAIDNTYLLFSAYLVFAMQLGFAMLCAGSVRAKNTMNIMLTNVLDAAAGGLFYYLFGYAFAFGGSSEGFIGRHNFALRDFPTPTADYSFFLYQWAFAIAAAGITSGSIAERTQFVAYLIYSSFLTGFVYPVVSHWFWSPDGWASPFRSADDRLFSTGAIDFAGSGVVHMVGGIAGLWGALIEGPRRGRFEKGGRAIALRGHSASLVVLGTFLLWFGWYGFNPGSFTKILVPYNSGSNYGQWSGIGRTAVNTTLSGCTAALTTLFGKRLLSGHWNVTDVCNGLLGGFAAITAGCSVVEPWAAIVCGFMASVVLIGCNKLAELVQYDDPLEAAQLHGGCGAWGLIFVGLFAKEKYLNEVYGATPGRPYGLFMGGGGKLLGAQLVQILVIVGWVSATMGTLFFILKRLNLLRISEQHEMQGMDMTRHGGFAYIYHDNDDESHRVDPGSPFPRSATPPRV

N [ammonium]
two-electrode voltage clamp, Xenopus oocytes, induced current (AtAMT1;3): Significant ammonium-induced currents were detected in AtAMT1;3-expressing oocytes

NC(=O)CC[C@H](N)C(=O)O [glutamine]
inhibition at 10000 µM (ZmAMT1.3): 55.4%
inhibition at 10000 µM (ZmAMT1.1a): 69.9%
inhibition at 10000 µM (ZmAMT1.1b): 67.5%

B1: ZmAMT1.1b (Zea mays) (protein)
chain: MATCATDLAPLLGPAAANATGYLCSQFADTASAVDATYLLFSAYLVFAMQLGFAMLCAGSVRAKNTMNIMLTNVLDAAAGALFYYLFGFAFAFGTPSNGFIGRHFFGLQRLPRTGFDYDFFLYQWAFAIAAAGITSGSIAERTQFVAYLIYSAFLTGFVYPVASHWFWSADGWAAAGRTSGPLLFGSGAIDFAGSGVVHMVGGIAGFWGALVEGPRIGRFDHAGRSVALRGHSASLVVLGTFLLWFGWYGFNPGSFTTILKSYGPAGTVHGQWSAVGRTAVTTTLAGSVAALTTLFGKRLQAGHWNVVDVCNGLLGGFAAITAGCSVVEPWAAVVCGFVSAWVLIGANALAARLRFDDPLEAAQLHGGCGAWGVLFTGLFARQEYVEEIYGAGRPYGLLMGGGGKLLAAQIVQIVVIAGWVSCTMGPLFYALKRLDLLRISADDEMSGMDLTRHGGFAYEDPGDNAGVGEFTLKSAQNRVEPPASSNRV
Km ([1]; pH 7.4, -140 mV (potential inferred from Figure 2D range)): 15.6 µM

B2: ZmAMT1.1a (Zea mays) (protein)
chain: MSTCAADLAPLLGPAAANATDYLCGQFADTASAVDATYLLFSAYLVFAMQLGFAMLCAGSVRAKNTMNIMLTNVLDAAAGALFYYLFGFAFAFGTPSNGFIGKQFFGLKHLPRTGFDYDFFLYQWAFAIAAAGITSGSIAERTQFVAYLIYSAFLTGFVYPVVSHWFWSADGWAGASRTSGPLLFGSGVIDFAGSGVVHMVGGIAGLWGALIEGPRIGRFDHAGRSVALKGHSASLVVLGTFLLWFGWYGFNPGSFTTILKSYGPAGTVHGQWSAVGRTAVTTTLAGSVAALTTLFGKRLQTGHWNVVDVCNGLLGGFAAITAGCSVVEPWAAVICGFVSAWVLIGANALAARFRFDDPLEAAQLHGGCGAWGVLFTGLFARRKYVEEIYGAGRPYGLFMGGGGKLLAAQIIQILVIAGWVSCTMGPLFYALKKLGLLRISADDEMSGMDLTRHGGFAYVYHDEDPGDKAGVGGFMLKSAQNRVEPAAAVAAATSSQV
notes: full-length cDNA from maize root RNA in pCI vector, expressed in Xenopus laevis oocytes; no tag stated
Km ([1]; pH 7.4, -140 mV): 9.9 ± 1.9 µM
Km [2]: 1900 ± 400 µM

B3: ZmAMT1.3 (Zea mays) (protein)
chain: MATCATTLAPLLGPAANATEYLCNQFADTTSAVDSTYLLFSAYLVFAMQLGFAMLCAGSVRAKNTMNIMLTNVLDAAAGALFYYLFGFAFAYGTPSNGFIGKHFFGLKRLPQVGFDYDFFLFQWAFAIAAAGITSGSIAERTQFVAYLIYSAFLTGFVYPVVSHWVWSADGWASPSRTSGKLLFGSGIIDFAGSSVVHMVGGIAGLWGALIEGPRIGRFDHAGRSVALRGHSASLVVLGTFLLWFGWFGFNPGSFLTILKSYGPAGSIHGQWSAVGRTAVTTTLAGSTAALTTLFGKRLQTGHWNVVDVCNGLLGGFAAITAGCSVVDPWAAIICGFVSAWVLIGLNALAARLRFDDPLEAAQLHGGCGAWGVLFTGLFARREYVEQIYGTPGRPYGLFMGGGGRLLAANVVMILVIAAWVSVTMAPLFLALNKMGLLRVSAEDEMAGMDQTRHGGFAYAYHDDDLSLSSRPKGMQSTQIADAASGEF
Km ([1]; pH 7.4, -140 mV (potential inferred from Figure 3D range)): 18.6 ± 2.8 µM
